For orientation: pEC50 means −log10 of the EC50, conventionally taken in molar units.

One test has as its system SZ95 sebocytes. Description: Sentinel Lipid Assay (SLA), desaturation index in SZ95 sebocytes. Particulars: Homo sapiens, 72 h; for pEC50: desaturation index, lowest dose used 4.6 nM, read-out: SLA EC50. Type of test: cell-based. The method in brief:
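SZ95 human sebocytes on fibronectin-coated plates, dosed 72 h at 37 °C with 1:3 dilutions from 10 μM; lipids extracted with deuterated triglyceride internal standards and quantified by LC-MS/MS (MRM) as 11 sentinel lipids. Desaturation index from elastic-net coefficients, normalized to DMSO; Amax relative to a reference LXR agonist.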

A further test concerns SCD1. Description: Measurement of SCD1 expression in SZ95-SCD1-HiBit cells (HiBiT assay). It is filed as cell-based. The conditions noted are these: Homo sapiens, 48 h; for pEC50: SCD1 protein production, luminescence, initial dilution 1:3 in DMSO, read-out: HiBit EC50. In general terms: The HiBiT peptide binds its large partner to form an active luciferase.
Where [1] appears, read: normalized Amax based on the reference compound Amax of 100%, read-out: SLA Normalized Amax.
[2] abbreviates: SZ95 cells, compared to reference compound, read-out: SLA Amax.
The mark [3] stands for this setting: normalized Amax based on the reference compound Amax of 100%, read-out: HiBit Normalized Amax.
Where [4] appears, read: SZ95-SCD1-HiBit cells, compared to reference compound, read-out: HiBit Amax.

pEC50: −log10 of the molar value. Like-named read-outs stand apart in the source and are kept apart here.

For the compound `O=C1N(Cc2nc(-c3ccc(Oc4ccccc4S(=O)(=O)CC(F)(F)F)c(C(F)(F)F)c3)no2)C(=O)C2(CCN(C3CCC3)CC2)N1CCC1CCOCC1` [Compound 48, 8-cyclobutyl-1-(2-(tetrahydro-2H-pyran-4-yl)ethyl)-3-((3-(4-(2-((2,2,2-trifluoroethyl)sulfonyl)phenoxy)-3-(trifluoromethyl)phenyl)-1,2,4-oxadiazol-5-yl)methyl)-1,3,8-triazaspiro[4.5]decane-2,4-dione], the Emax in the test on SZ95 sebocytes (setting [1]) worked out at 125%; in the test with SZ95 sebocytes (setting [2]) it was 120%; in the test on SCD1 (setting [3]), 93.5%; in the test with SCD1 (setting [4]) it was 88.9%. The pEC50 in the test with SZ95 sebocytes (SZ95 cells) was at least 8.34; with SCD1 (SZ95-SCD1-HiBit cells), 10.28.
In the case of `CCN1CCC2(CC1)C(=O)N(Cc1nc(-c3ccc(Oc4ccccc4S(=O)(=O)CC(C)C)c(C(F)(F)F)c3)no1)C(=O)N2CCN1CCOCC1` [Compound 24, 8-ethyl-3-((3-(4-(2-(isobutylsulfonyl)phenoxy)-3-(trifluoromethyl)phenyl)-1,2,4-oxadiazol-5-yl)methyl)-1-(2-morpholinoethyl)-1,3,8-triazaspiro[4.5]decane-2,4-dione], the Emax was 164% in the test on SZ95 sebocytes (setting [1]), 158% with SZ95 sebocytes (setting [2]), 117% in the test on SCD1 (setting [3]) and 111% with SCD1 (setting [4]). For the same compound, the negative logarithm of the EC50 (pEC50) in the test with SZ95 sebocytes (SZ95 cells) is at least 8.34; in the test with SCD1 (SZ95-SCD1-HiBit cells), 10.30.
Turning to `CC(C)CS(=O)(=O)c1ccccc1Oc1ccc(-c2noc(CN3C(=O)N(CCN4CCOCC4)C(C)(CO)C3=O)n2)cc1C(F)(F)F` (stereo not drawn) [Compound 46, 5-(hydroxymethyl)-3-((3-(4-(2-(isobutylsulfonyl)phenoxy)-3-(trifluoromethyl)phenyl)-1,2,4-oxadiazol-5-yl)methyl)-5-methyl-1-(2-morpholinoethyl)imidazolidine-2,4-dione], the Emax in the test on SZ95 sebocytes (setting [1]) amounted to 170%; in the test on SZ95 sebocytes (setting [2]), 163%; in the test on SCD1 (setting [3]) it was 98%; in the test with SCD1 (setting [4]), 93.2%. Moreover, the results for the pEC50 in the test on SZ95 sebocytes (SZ95 cells) and in the test with SCD1 (SZ95-SCD1-HiBit cells) were at least 8.34 and 8.22, respectively.
For the compound `COCCS(=O)(=O)c1ccccc1Oc1ccc(-c2noc(CN3C(=O)N(CCN4CCOCC4)C(C)(C)C3=O)n2)cc1C(F)(F)F` [Compound 58, 3-((3-(4-(2-((2-methoxyethyl)sulfonyl)phenoxy)-3-(trifluoromethyl)phenyl)-1,2,4-oxadiazol-5-yl)methyl)-5,5-dimethyl-1-(2-morpholinoethyl)imidazolidine-2,4-dione], the Emax amounted to 167% in the test with SZ95 sebocytes (setting [1]), 161% with SZ95 sebocytes (setting [2]), 107% with SCD1 (setting [3]) and 102% in the test with SCD1 (setting [4]). The pEC50 in the test on SZ95 sebocytes (SZ95 cells) is at least 8.34; in the test on SCD1 (SZ95-SCD1-HiBit cells) it was 9.55.
In the case of `CC1(C)C(=O)N(Cc2nc(-c3ccc(OCC(C)(C(F)(F)F)C(F)(F)F)c(C(F)(F)F)c3)no2)C(=O)N1CCN1CCOCC1` [Compound 42, 5,5-dimethyl-1-(2-morpholinoethyl)-3-((3-(4-(3,3,3-trifluoro-2-methyl-2-(trifluoromethyl)propoxy)-3-(trifluoromethyl)phenyl)-1,2,4-oxadiazol-5-yl)methyl)imidazolidine-2,4-dione], the Emax in the test on SZ95 sebocytes (setting [1]) was determined as 157%; with SZ95 sebocytes (setting [2]) it was 150%; with SCD1 (setting [3]), 86.1%; in the test with SCD1 (setting [4]), 81.9%. The negative logarithm of the EC50 (pEC50) in the test on SZ95 sebocytes (SZ95 cells) is at least 8.34; with SCD1 (SZ95-SCD1-HiBit cells) it was 8.82.
Regarding `CCCC(=O)N1CCC2(CC1)C(=O)N(Cc1nc(-c3ccc(Oc4ccccc4S(=O)(=O)CC(C)C)c(C(F)(F)F)c3)no1)C(=O)N2CCN1CCOCC1` [Compound 35, 8-butyryl-3-((3-(4-(2-(isobutylsulfonyl)phenoxy)-3-(trifluoromethyl)phenyl)-1,2,4-oxadiazol-5-yl)methyl)-1-(2-morpholinoethyl)-1,3,8-triazaspiro[4.5]decane-2,4-dione], the Emax is 122% in the test with SZ95 sebocytes (setting [1]), 117% with SZ95 sebocytes (setting [2]), 73.1% in the test on SCD1 (setting [3]) and 69.5% with SCD1 (setting [4]). Besides, the values for the pEC50 in the test on SZ95 sebocytes (SZ95 cells) and in the test with SCD1 (SZ95-SCD1-HiBit cells) were 7.76 and 9.21, respectively.
Turning to `CC(COc1ccc(-c2noc(CN3C(=O)N(CCC4CCOCC4)C4(CCN(C(=O)c5cncnc5)CC4)C3=O)n2)cc1C(F)(F)F)(C(F)(F)F)C(F)(F)F` [Compound 31, 8-(pyrimidine-5-carbonyl)-1-(2-(tetrahydro-2H-pyran-4-yl)ethyl)-3-((3-(4-(3,3,3-trifluoro-2-methyl-2-(trifluoromethyl)propoxy)-3-(trifluoromethyl)phenyl)-1,2,4-oxadiazol-5-yl)methyl)-1,3,8-triazaspiro[4.5]decane-2,4-dione], the Emax stood at 100% with SZ95 sebocytes (setting [1]), 96.3% in the test with SZ95 sebocytes (setting [2]), 82.3% in the test with SCD1 (setting [3]) and 78.3% in the test with SCD1 (setting [4]). For the same compound, the negative-log EC50 (pEC50) with SZ95 sebocytes (SZ95 cells) was at least 8.34; with SCD1 (SZ95-SCD1-HiBit cells) it was 9.36.
With `CC1(C)C(=O)N(Cc2nc(-c3ccc(Oc4ccccc4C(F)(F)F)c(C(F)(F)F)c3)no2)C(=O)N1CCN1CCOCC1` [Compound 41, 5,5-dimethyl-1-(2-morpholinoethyl)-3-((3-(3-(trifluoromethyl)-4-(2-(trifluoromethyl)phenoxy)phenyl)-1,2,4-oxadiazol-5-yl)methyl)imidazolidine-2,4-dione], the Emax in the test on SZ95 sebocytes (setting [1]) worked out at 92.2%; with SZ95 sebocytes (setting [2]) it was 88.5%; in the test on SCD1 (setting [3]) it was 93%; in the test with SCD1 (setting [4]), 88.4%. Besides, the negative-log EC50 (pEC50) in the test with SZ95 sebocytes (SZ95 cells) is at least 8.34; in the test with SCD1 (SZ95-SCD1-HiBit cells), 9.78.
For `CC(C)CS(=O)(=O)c1ccccc1Oc1ccc(-c2noc(CN3C(=O)N(CCN4CCOCC4)C4(CCN(Cc5ccc(O)cc5)CC4)C3=O)n2)cc1C(F)(F)F` [Compound 20, 8-(4-hydroxybenzyl)-3-((3-(4-(2-(isobutylsulfonyl)phenoxy)-3-(trifluoromethyl)phenyl)-1,2,4-oxadiazol-5-yl)methyl)-1-(2-morpholinoethyl)-1,3,8-triazaspiro[4.5]decane-2,4-dione], the Emax with SZ95 sebocytes (setting [1]) came out at 155%; in the test with SZ95 sebocytes (setting [2]) it was 149%; in the test on SCD1 (setting [3]) it was 93.7%; with SCD1 (setting [4]), 89.1%. Moreover, the values for the pEC50 with SZ95 sebocytes (SZ95 cells) and in the test with SCD1 (SZ95-SCD1-HiBit cells) were at least 8.34 and 10.11, respectively.
Consider `CC(C)(C)c1ccccc1Oc1ccc(-c2noc(CN3C(=O)N(CCN4CCOCC4)C4(CCN(C5CCC5)CC4)C3=O)n2)cc1C(F)(F)F` [Compound 16, 3-((3-(4-(2-(tert-butyl)phenoxy)-3-(trifluoromethyl)phenyl)-1,2,4-oxadiazol-5-yl)methyl)-8-cyclobutyl-1-(2-morpholinoethyl)-1,3,8-triazaspiro[4.5]decane-2,4-dione], for which the Emax with SZ95 sebocytes (setting [1]) was 146%; in the test on SZ95 sebocytes (setting [2]), 140%; in the test with SCD1 (setting [3]), 94.8%; in the test with SCD1 (setting [4]), 90.2%. The values for the negative logarithm of the EC50 (pEC50) with SZ95 sebocytes (SZ95 cells) and in the test with SCD1 (SZ95-SCD1-HiBit cells) were at least 8.34 and 9.94, respectively.
For the compound `O=C1N(Cc2nc(-c3ccc(Oc4ccccc4S(=O)(=O)CC4CCCO4)c(C(F)(F)F)c3)no2)C(=O)C2(CCN(C3CCC3)CC2)N1CCN1CCOCC1` (stereo not drawn) [Compound 18, 8-cyclobutyl-1-(2-morpholinoethyl)-3-((3-(4-(2-(((tetrahydrofuran-2-yl)methyl)sulfonyl)phenoxy)-3-(trifluoromethyl)phenyl)-1,2,4-oxadiazol-5-yl)methyl)-1,3,8-triazaspiro[4.5]decane-2,4-dione], the Emax in the test with SZ95 sebocytes (setting [1]) was determined as 141%; in the test with SZ95 sebocytes (setting [2]), 135%; with SCD1 (setting [3]), 139%; in the test on SCD1 (setting [4]), 132%. Further, the pEC50 is at least 8.34 in the test on SZ95 sebocytes (SZ95 cells) and 9.88 in the test with SCD1 (SZ95-SCD1-HiBit cells).
With `CC(C)CS(=O)(=O)c1ccccc1Oc1ccc(-c2noc(CN3C(=O)CN(CCN4CCOCC4)C3=O)n2)cc1C(F)(F)F` [Compound 44, 3-((3-(4-(2-(isobutylsulfonyl)phenoxy)-3-(trifluoromethyl)phenyl)-1,2,4-oxadiazol-5-yl)methyl)-1-(2-morpholinoethyl)imidazolidine-2,4-dione], the Emax in the test with SZ95 sebocytes (setting [1]) was determined as 86.4%; with SZ95 sebocytes (setting [2]), 82.9%; with SCD1 (setting [3]), 77%; in the test on SCD1 (setting [4]), 73.2%. Moreover, the pEC50 with SZ95 sebocytes (SZ95 cells) is at least 8.34; in the test with SCD1 (SZ95-SCD1-HiBit cells) it was 8.18.
Turning to `CC(C)CS(=O)(=O)c1ccccc1Oc1ccc(-c2noc(CN3C(=O)N(CCN4CCOCC4)C4(CCN(C5CCN(C)CC5)CC4)C3=O)n2)cc1C(F)(F)F` [Compound 22, 3-((3-(4-(2-(isobutylsulfonyl)phenoxy)-3-(trifluoromethyl)phenyl)-1,2,4-oxadiazol-5-yl)methyl)-8-(1-methylpiperidin-4-yl)-1-(2-morpholinoethyl)-1,3,8-triazaspiro[4.5]decane-2,4-dione], the Emax came to 160% with SZ95 sebocytes (setting [1]), 154% in the test on SZ95 sebocytes (setting [2]), 135% in the test with SCD1 (setting [3]) and 129% with SCD1 (setting [4]). The pEC50 in the test on SZ95 sebocytes (SZ95 cells) was at least 8.34; in the test with SCD1 (SZ95-SCD1-HiBit cells) it was 8.74.
For `O=C1N(Cc2nc(-c3ccc(Oc4ccccc4S(=O)(=O)CC4CCCO4)c(C(F)(F)F)c3)no2)C(=O)C2(CCN(C3CCC3)CC2)N1CCC1CCOCC1` (stereo not drawn) [Compound 19, 8-cyclobutyl-1-(2-(tetrahydro-2H-pyran-4-yl)ethyl)-3-((3-(4-(2-(((tetrahydrofuran-2-yl)methyl)sulfonyl)phenoxy)-3-(trifluoromethyl)phenyl)-1,2,4-oxadiazol-5-yl)methyl)-1,3,8-triazaspiro[4.5]decane-2,4-dione], the Emax in the test on SZ95 sebocytes (setting [1]) was 146%; in the test with SZ95 sebocytes (setting [2]) it was 140%; in the test with SCD1 (setting [3]) it was 194%; in the test with SCD1 (setting [4]), 184%. In addition, the pEC50 in the test with SZ95 sebocytes (SZ95 cells) is at least 8.34; with SCD1 (SZ95-SCD1-HiBit cells), 10.38.
